Laboratory results reported in patent publication US20220289708A1, “SUBSTITUTED N-PHENYL URACILS, SALTS THEREOF AND THEIR USE AS HERBICIDAL AGENTS” (Bayer Aktiengesellschaft, priority 2019, published 2022).

How the values were obtained:
Type in all cases: in vivo
Oryza sativa = test: Post-emergence crop plant compatibility
Experimental: a. Post-Emergence Herbicidal Action and Crop Plant Compatibility
(§1) Seeds of monocotyledonous and dicotyledonous weeds and crop plants were placed in sandy loam in plastic or wood-fiber pots, covered with soil and cultivated in a greenhouse under controlled growth conditions. 2 to 3 weeks after sowing, the test plants were treated at the one-leaf stage. The compounds of the invention, formulated in the form of wettable powders (WP) or as emulsion concentrates (EC), were then sprayed onto the green parts of the plants as aqueous suspension or emulsion with addition of 0.5% additive at a water application rate of 600 l/ha (converted). After the test plants had been kept in the greenhouse under optimum growth conditions for about 3 weeks, the activity of the preparations was rated visually in comparison to untreated controls. For example, 100% activity=the plants have died, 0% activity=like control plants.
Tables A16 to A19 below show the crop plant compatibilities of selected compounds of the general formula (I) according to Tables I.1 to I.36 at an application rate corresponding to 5 g/ha or 20 g/ha, which were obtained in experiments according to the experimental procedure mentioned above. Here, the observed effects on selected crop plants are stated in comparison to the untreated controls (values in %).

Lolium rigidum = test: Post-emergence herbicidal action; details: application rate 20 g/ha, rated visually after about 3 weeks vs untreated controls
Experimental: as §1, with “a. Post-Emergence Herbicidal Action and Crop Plant Compatibility Seeds” for “Seeds”, “plants. Tables A1 to A15 below show the effects of selected compounds of the general formula (I) according to Tables I.1 to I.36 on various harmful plants and at an application rate corresponding to 20 g/ha and less, which were obtained by the experimental procedure mentioned above.” for “plants.”

Abutilon theophrasti = test: Post-emergence herbicidal action; details: application rate 20 g/ha, rated visually after about 3 weeks vs untreated controls
Experimental: as §1, with “a. Post-Emergence Herbicidal Action and Crop Plant Compatibility Seeds” for “Seeds”, “plants. Tables A1 to A15 below show the effects of selected compounds of the general formula (I) according to Tables I.1 to I.36 on various harmful plants and at an application rate corresponding to 20 g/ha and less, which were obtained by the experimental procedure mentioned above.” for “plants.”

Echinochloa crus-galli = test: Post-emergence herbicidal action; details: application rate 20 g/ha, rated visually after about 3 weeks vs untreated controls
Experimental: as §1, with “a. Post-Emergence Herbicidal Action and Crop Plant Compatibility Seeds” for “Seeds”, “plants. Tables A1 to A15 below show the effects of selected compounds of the general formula (I) according to Tables I.1 to I.36 on various harmful plants and at an application rate corresponding to 20 g/ha and less, which were obtained by the experimental procedure mentioned above.” for “plants.”

Alopecurus myosuroides = test: Post-emergence herbicidal action; details: application rate 20 g/ha, rated visually after about 3 weeks vs untreated controls
Experimental: as §1, with “a. Post-Emergence Herbicidal Action and Crop Plant Compatibility Seeds” for “Seeds”, “plants. Tables A1 to A15 below show the effects of selected compounds of the general formula (I) according to Tables I.1 to I.36 on various harmful plants and at an application rate corresponding to 20 g/ha and less, which were obtained by the experimental procedure mentioned above.” for “plants.”

Avena fatua = test: Post-emergence herbicidal action; details: application rate 20 g/ha, rated visually after about 3 weeks vs untreated controls
Experimental: as §1, with “a. Post-Emergence Herbicidal Action and Crop Plant Compatibility Seeds” for “Seeds”, “plants. Tables A1 to A15 below show the effects of selected compounds of the general formula (I) according to Tables I.1 to I.36 on various harmful plants and at an application rate corresponding to 20 g/ha and less, which were obtained by the experimental procedure mentioned above.” for “plants.”

Matricaria inodora = test: Post-emergence herbicidal action; details: application rate 20 g/ha, rated visually after about 3 weeks vs untreated controls
Experimental: as §1, with “a. Post-Emergence Herbicidal Action and Crop Plant Compatibility Seeds” for “Seeds”, “plants. Tables A1 to A15 below show the effects of selected compounds of the general formula (I) according to Tables I.1 to I.36 on various harmful plants and at an application rate corresponding to 20 g/ha and less, which were obtained by the experimental procedure mentioned above.” for “plants.”

Amaranthus retroflexus = test: Post-emergence herbicidal action; details: application rate 20 g/ha, rated visually after about 3 weeks vs untreated controls
Experimental: as §1, with “a. Post-Emergence Herbicidal Action and Crop Plant Compatibility Seeds” for “Seeds”, “plants. Tables A1 to A15 below show the effects of selected compounds of the general formula (I) according to Tables I.1 to I.36 on various harmful plants and at an application rate corresponding to 20 g/ha and less, which were obtained by the experimental procedure mentioned above.” for “plants.”

Pharbitis purpurea = test: Post-emergence herbicidal action; details: application rate 20 g/ha, rated visually after about 3 weeks vs untreated controls
Experimental: as §1, with “a. Post-Emergence Herbicidal Action and Crop Plant Compatibility Seeds” for “Seeds”, “plants. Tables A1 to A15 below show the effects of selected compounds of the general formula (I) according to Tables I.1 to I.36 on various harmful plants and at an application rate corresponding to 20 g/ha and less, which were obtained by the experimental procedure mentioned above.” for “plants.”

Viola tricolor = test: Post-emergence herbicidal action; details: application rate 20 g/ha
Experimental: as §1, with “a. Post-Emergence Herbicidal Action and Crop Plant Compatibility Seeds” for “Seeds”, “plants. Tables A1 to A15 below show the effects of selected compounds of the general formula (I) according to Tables I.1 to I.36 on various harmful plants and at an application rate corresponding to 20 g/ha and less, which were obtained by the experimental procedure mentioned above.” for “plants.”

Veronica persica = test: Post-emergence herbicidal action; details: application rate 20 g/ha
Experimental: as §1, with “a. Post-Emergence Herbicidal Action and Crop Plant Compatibility Seeds” for “Seeds”, “plants. Tables A1 to A15 below show the effects of selected compounds of the general formula (I) according to Tables I.1 to I.36 on various harmful plants and at an application rate corresponding to 20 g/ha and less, which were obtained by the experimental procedure mentioned above.” for “plants.”

Digitaria sanguinalis = test: Post-emergence herbicidal action; details: application rate 20 g/ha, rated visually after about 3 weeks vs untreated controls
Experimental: as §1, with “a. Post-Emergence Herbicidal Action and Crop Plant Compatibility Seeds” for “Seeds”, “plants. Tables A1 to A15 below show the effects of selected compounds of the general formula (I) according to Tables I.1 to I.36 on various harmful plants and at an application rate corresponding to 20 g/ha and less, which were obtained by the experimental procedure mentioned above.” for “plants.”

Setaria viridis = test: Post-emergence herbicidal action; details: application rate 20 g/ha, rated visually after about 3 weeks vs untreated controls
Experimental: as §1, with “a. Post-Emergence Herbicidal Action and Crop Plant Compatibility Seeds” for “Seeds”, “plants. Tables A1 to A15 below show the effects of selected compounds of the general formula (I) according to Tables I.1 to I.36 on various harmful plants and at an application rate corresponding to 20 g/ha and less, which were obtained by the experimental procedure mentioned above.” for “plants.”

Polygonum convolvulus = test: Post-emergence herbicidal action; details: application rate 20 g/ha
Experimental: as §1, with “a. Post-Emergence Herbicidal Action and Crop Plant Compatibility Seeds” for “Seeds”, “plants. Tables A1 to A15 below show the effects of selected compounds of the general formula (I) according to Tables I.1 to I.36 on various harmful plants and at an application rate corresponding to 20 g/ha and less, which were obtained by the experimental procedure mentioned above.” for “plants.”

| SMILES | Oryza sativa (efficacy in %) (Oryza sativa; application rate 5 g/ha) [%] | Lolium rigidum (efficacy in %) (Lolium rigidum) [%] | Abutilon theophrasti (efficacy in %) (Abutilon theophrasti) [%] | Echinochloa crus-galli (efficacy in %) (Echinochloa crus-galli) [%] | Alopecurus myosuroides (efficacy in %) (Alopecurus myosuroides) [%] | Avena fatua (efficacy in %) (Avena fatua) [%] | Matricaria inodora (efficacy in %) (Matricaria inodora) [%] | Amaranthus retroflexus (efficacy in %) (Amaranthus retroflexus) [%] | Pharbitis purpurea (efficacy in %) (Pharbitis purpurea) [%] | Viola tricolor (efficacy in %) (Viola tricolor) [%] | Veronica persica (efficacy in %) (Veronica persica) [%] | Oryza sativa (efficacy in %) (Oryza sativa; application rate 20 g/ha) [%] | Digitaria sanguinalis (efficacy in %) (Digitaria sanguinalis) [%] | Setaria viridis (efficacy in %) (Setaria viridis) [%] | Polygonum convolvulus (efficacy in %) (Polygonum convolvulus) [%] |
| --- | --- | --- | --- | --- | --- | --- | --- | --- | --- | --- | --- | --- | --- | --- | --- |
| Cn1c(C(F)(F)F)cc(=O)n(-c2cc(Sc3cccnc3OCC(=O)OCc3ccccn3)c(Cl)cc2F)c1=O [I.1-286] | 0 | 80 | 100 | 100 | 100 | 80 | 100 | 100 | 100 | 100 | 100 | – | – | – | – |
| COCCOC(=O)COc1ncc(F)cc1Sc1cc(-n2c(=O)cc(C(F)(F)F)n(C)c2=O)c(F)cc1Cl [I.31-1] | – | 80 | 100 | 100 | 90 | – | 100 | 100 | 100 | 100 | 100 | 20 | 100 | 100 | – |
| COCCOCCOC(=O)COc1ncc(F)cc1Sc1cc(-n2c(=O)cc(C(F)(F)F)n(C)c2=O)c(F)cc1Cl [I.31-23, 2-(2-Methoxyethoxy)ethyl {[3-({5-[3-methyl-2,6-dioxo-4-(trifluoromethyl)-3,6-dihydropyrimidin-1(2H)-yl]-2-chloro-4-fluorophenyl}sulfanyl)-5-fluoropyridin-2-yl]oxy}acetate] | – | – | 100 | 100 | 90 | – | 100 | 100 | 100 | 100 | 100 | 20 | 100 | 100 | – |
| COCCOC(=O)COc1ncccc1Oc1cc(-n2c(=O)cc(C(F)(F)F)n(C)c2=O)c(F)cc1C#N [I.35-1] | – | 80 | 100 | 100 | 100 | 100 | 100 | 100 | 100 | 100 | 100 | – | 100 | 100 | 100 |
| COCCOC(=O)COc1ncc(F)cc1Oc1cc(-n2c(=O)cc(C(F)(F)F)n(C)c2=O)c(F)cc1Cl [I.36-1] | – | 90 | 100 | 100 | 100 | 100 | 100 | 100 | 100 | 100 | 100 | – | 100 | 100 | 100 |
| Cn1c(C(F)(F)F)cc(=O)n(-c2cc(Oc3cc(F)cnc3OCC(=O)OCc3ccccn3)c(Cl)cc2F)c1=O [I.36-286] | – | 80 | 100 | 100 | 100 | 80 | 90 | 100 | 100 | 100 | 100 | – | 100 | 100 | 100 |
